This is an account of results in ChEMBL document CHEMBL4825702, “5-Aminonaphthalene derivatives as selective nonnucleoside nuclear receptor binding SET domain-protein 2 (NSD2) inhibitors for the treatment of multiple myeloma” (Eur J Med Chem, 2021).

pIC50, pKd: −log10 of the molar value. Where only a bound is given, the exact number is not on record here.

As a reminder, the pKd is the Kd on a negative log10 scale, so that one unit is a factor of ten. The term pIC50 denotes −log10 of the IC50, conventionally taken in molar units.

The first assay concerns the target T1, Histone-lysine N-methyltransferase NSD2 (Homo sapiens, UniProt O96028).
T1 sequence (O96028 whole entry): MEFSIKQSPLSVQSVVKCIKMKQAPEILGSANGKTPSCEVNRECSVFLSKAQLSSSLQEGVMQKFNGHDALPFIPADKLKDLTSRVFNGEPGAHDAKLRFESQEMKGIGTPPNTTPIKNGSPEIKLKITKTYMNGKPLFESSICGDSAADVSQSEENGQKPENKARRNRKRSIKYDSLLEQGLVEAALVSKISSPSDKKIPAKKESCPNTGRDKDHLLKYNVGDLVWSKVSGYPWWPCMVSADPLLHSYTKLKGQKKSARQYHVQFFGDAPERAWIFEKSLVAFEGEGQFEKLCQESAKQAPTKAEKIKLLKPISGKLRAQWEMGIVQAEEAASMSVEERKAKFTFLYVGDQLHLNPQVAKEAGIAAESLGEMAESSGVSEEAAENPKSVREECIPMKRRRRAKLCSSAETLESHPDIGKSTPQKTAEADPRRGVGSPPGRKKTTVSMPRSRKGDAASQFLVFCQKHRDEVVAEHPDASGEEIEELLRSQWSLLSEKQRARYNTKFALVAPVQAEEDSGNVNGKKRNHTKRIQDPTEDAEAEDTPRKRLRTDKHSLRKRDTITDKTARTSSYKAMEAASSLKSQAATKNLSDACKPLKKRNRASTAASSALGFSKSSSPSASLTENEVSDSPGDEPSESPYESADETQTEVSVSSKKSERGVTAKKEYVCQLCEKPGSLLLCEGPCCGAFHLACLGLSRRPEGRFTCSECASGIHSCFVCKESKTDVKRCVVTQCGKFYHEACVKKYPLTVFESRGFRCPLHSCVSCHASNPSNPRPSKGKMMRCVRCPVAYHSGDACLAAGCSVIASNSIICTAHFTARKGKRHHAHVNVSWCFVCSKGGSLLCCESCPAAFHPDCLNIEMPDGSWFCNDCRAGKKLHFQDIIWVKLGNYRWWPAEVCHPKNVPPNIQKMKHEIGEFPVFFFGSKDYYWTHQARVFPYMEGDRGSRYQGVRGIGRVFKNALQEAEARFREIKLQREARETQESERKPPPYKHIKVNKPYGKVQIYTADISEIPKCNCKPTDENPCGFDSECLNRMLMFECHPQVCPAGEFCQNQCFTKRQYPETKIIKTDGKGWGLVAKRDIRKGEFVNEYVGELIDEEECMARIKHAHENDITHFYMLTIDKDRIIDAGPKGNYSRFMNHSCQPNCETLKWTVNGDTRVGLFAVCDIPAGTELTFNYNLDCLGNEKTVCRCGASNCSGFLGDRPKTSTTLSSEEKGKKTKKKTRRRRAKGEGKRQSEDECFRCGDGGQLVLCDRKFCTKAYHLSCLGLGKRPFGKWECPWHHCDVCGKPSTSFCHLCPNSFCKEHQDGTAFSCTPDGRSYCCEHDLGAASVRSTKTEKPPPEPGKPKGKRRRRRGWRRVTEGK
As to the kind of experiment: Binding affinity to MMSET (973 to 1203 residues) (unknown origin) expressed in Escherichia coli BL21 DE3 by ITC analysis.
For `CCC(C)NC(CC[C@H](N)C(=O)O)C[C@H]1O[C@@H](n2cnc3c(N)ncnc32)[C@H](O)[C@@H]1O` (some centres undefined), the pKd was 5.80.

In the next assay the target is T1, Histone-lysine N-methyltransferase NSD2. The assay can be described thus: Inhibition of recombinant human N-terminal GST-tagged NSD2 CD (941 to 1240 residues) expressed in Escherichia coli using SAM as substrate in presence of nucleosomes by AlphaLISA method. In general terms: Alpha assays give light when donor and acceptor beads are brought close together.
Turning to `COc1ccc(CNS(=O)(=O)c2cccc3c(N)cccc23)cc1`, the pIC50 was 4.87. For `CN(C)c1cccc2c(S(=O)(=O)NCc3ccccc3)cccc12`, the pIC50 is below 4.70. Consider `O=C(NCc1ccccc1)c1cccc2[nH]ccc12`, for which the negative-log IC50 (pIC50) was below 4.70. As to `Nc1ccc2c(S(=O)(=O)NCc3ccccc3)cccc2c1`, the pIC50 was below 4.70. Consider `Nc1ccc(S(=O)(=O)NCc2ccccc2)c2ccccc12`, for which the pIC50 was below 4.70. `CCN1CCC(Nc2cccc3c(S(=O)(=O)NCc4ccccc4)cccc23)CC1`: the pIC50 was 5.49. Take `O=C(OCc1ccccc1)N1CCC(Nc2cccc3c(S(=O)(=O)NCc4ccccc4)cccc23)CC1`: the negative-log IC50 (pIC50) is below 4.70. As for `CS(=O)(=O)N1CCC(Nc2cccc3c(S(=O)(=O)NCc4ccccc4)cccc23)CC1`, the negative logarithm of the IC50 (pIC50) was 4.93.

In the case of `O=S(=O)(NCc1ccccc1)c1cccc2c(NC3CCNCC3)cccc12`, the pIC50 is 4.99. On the same count and under the same terms, the result for `CN1CCC(Nc2cccc3c(S(=O)(=O)NCc4ccccc4)cccc23)CC1` reads 5.22; that for `Nc1cccc2cc(S(=O)(=O)NCc3ccccc3)ccc12`, below 4.70; that for `O=S(=O)(NCc1ccccc1)c1cccc2ccccc12`, below 4.70. Regarding `Nc1ccc2cc(S(=O)(=O)NCc3ccccc3)ccc2c1`, the pIC50 was below 4.70. Regarding `Nc1cccc2c(S(=O)(=O)NCc3cccs3)cccc12`, the pIC50 is 4.64. On to `O=C(NCc1ccccc1)c1cccc2ncccc12`, for which the pIC50 is 4.71. `Nc1cccc2c(S(=O)(=O)NCC3CCCNC3)cccc12` (centres undefined): the pIC50 is below 4.70. In the case of `N#Cc1cccc(CNS(=O)(=O)c2cccc3c(N)cccc23)c1`, the pIC50 was below 4.70. Turning to `CN(Cc1ccccc1)S(=O)(=O)c1cccc2c(N)cccc12`, the negative logarithm of the IC50 (pIC50) is below 4.70. As to `Nc1cccc2c(S(=O)(=O)N3CCC(Cc4ccccc4)CC3)cccc12`, the pIC50 is below 4.70. `CC(=O)Nc1cccc2c(S(=O)(=O)NCc3ccccc3)cccc12`: the pIC50 is below 4.70. With `CC(C)(C)NS(=O)(=O)c1cccc2c(N)cccc12`, the pIC50 is 4.74. The same measure, in the same setting: under `Nc1cccc2c(S(=O)(=O)NC3CC3c3ccccc3)cccc12` (trans isomer) stands 4.70; under `Nc1cccc2c(S(=O)(=O)NCc3ccc(C(=O)O)cc3)cccc12`, below 4.70. For `Nc1cccc2c(S(=O)(=O)Nc3ccccc3)cccc12`, the negative-log IC50 (pIC50) is below 4.70. Consider `O=S(=O)(NCc1ccccc1)c1cccc2c(NC3CCCCC3)cccc12`, for which the pIC50 was 4.90.

Turning to `O=C(c1ccccc1)N1CCC(Nc2cccc3c(S(=O)(=O)NCc4ccccc4)cccc23)CC1`, the pIC50 was 4.74.

`CN1CCC(CNS(=O)(=O)c2cccc3c(N)cccc23)CC1`: the negative-log IC50 (pIC50) is 5.47. Same read-out and setting: the result for `Nc1cccc2c(S(=O)(=O)NCc3ccc(F)cc3)cccc12` reads 4.85; that for `CC(=O)N1CCC(Nc2cccc3c(S(=O)(=O)NCc4ccccc4)cccc23)CC1`, 5.12.

`Nc1cccc2c(S(=O)(=O)NCc3ccc(C(F)(F)F)cc3)cccc12`: the pIC50 is 4.98. On the same count and under the same terms, under `Nc1cccc2c(C(=O)NCc3ccccc3)cccc12` stands 4.71; under `O=S(=O)(NCc1ccccc1)c1cccc2c(NCC3CC3)cccc12`, 4.97. For `Nc1cccc2c(S(=O)(=O)NCc3ccncc3)cccc12`, the negative logarithm of the IC50 (pIC50) is 4.59. For `Nc1cccc2c(S(=O)(=O)NCCc3ccccc3)cccc12`, the pIC50 is 4.81. Consider `Nc1cccc2c(S(=O)(=O)NCC3CCCCC3)cccc12`, for which the negative-log IC50 (pIC50) is below 4.70. For the compound `N#Cc1ccc(CNS(=O)(=O)c2cccc3c(N)cccc23)cc1`, the negative-log IC50 (pIC50) is 4.74.

Another assay shares this target. The assay can be described thus: Inhibition of human NSD2-SET using histone H3.1 as substrate incubated for 1 hr by Western blot analysis. In general terms: A western blot detects proteins with antibodies after separation by electrophoresis.
`COc1cc2nc(N3CCN(C)CC3)nc(NC3CCN(Cc4ccccc4)CC3)c2cc1OC` had a negative-log IC50 (pIC50) of 4.39.

The next assay has the same target. The assay can be described thus: Inhibition of NSD2 (953 to 1240 residues) (unknown origin) using SAM as substrate in presence of nucleosome by AlphaScreen assay.
Turning to `CCC(C)NC(CC[C@H](N)C(=O)O)C[C@H]1O[C@@H](n2cnc3c(N)ncnc32)[C@H](O)[C@@H]1O` (some centres undefined), the pIC50 was 5.48.

The target in a further assay is Histone-lysine N-methyltransferase NSD3 (Homo sapiens, UniProt Q9BZ95). As to the kind of experiment: Inhibition of human NSD3-SET using histone H3.1 as substrate incubated for 1 hr by Western blot analysis.
Chain of Histone-lysine N-methyltransferase NSD3 (Q9BZ95 whole entry): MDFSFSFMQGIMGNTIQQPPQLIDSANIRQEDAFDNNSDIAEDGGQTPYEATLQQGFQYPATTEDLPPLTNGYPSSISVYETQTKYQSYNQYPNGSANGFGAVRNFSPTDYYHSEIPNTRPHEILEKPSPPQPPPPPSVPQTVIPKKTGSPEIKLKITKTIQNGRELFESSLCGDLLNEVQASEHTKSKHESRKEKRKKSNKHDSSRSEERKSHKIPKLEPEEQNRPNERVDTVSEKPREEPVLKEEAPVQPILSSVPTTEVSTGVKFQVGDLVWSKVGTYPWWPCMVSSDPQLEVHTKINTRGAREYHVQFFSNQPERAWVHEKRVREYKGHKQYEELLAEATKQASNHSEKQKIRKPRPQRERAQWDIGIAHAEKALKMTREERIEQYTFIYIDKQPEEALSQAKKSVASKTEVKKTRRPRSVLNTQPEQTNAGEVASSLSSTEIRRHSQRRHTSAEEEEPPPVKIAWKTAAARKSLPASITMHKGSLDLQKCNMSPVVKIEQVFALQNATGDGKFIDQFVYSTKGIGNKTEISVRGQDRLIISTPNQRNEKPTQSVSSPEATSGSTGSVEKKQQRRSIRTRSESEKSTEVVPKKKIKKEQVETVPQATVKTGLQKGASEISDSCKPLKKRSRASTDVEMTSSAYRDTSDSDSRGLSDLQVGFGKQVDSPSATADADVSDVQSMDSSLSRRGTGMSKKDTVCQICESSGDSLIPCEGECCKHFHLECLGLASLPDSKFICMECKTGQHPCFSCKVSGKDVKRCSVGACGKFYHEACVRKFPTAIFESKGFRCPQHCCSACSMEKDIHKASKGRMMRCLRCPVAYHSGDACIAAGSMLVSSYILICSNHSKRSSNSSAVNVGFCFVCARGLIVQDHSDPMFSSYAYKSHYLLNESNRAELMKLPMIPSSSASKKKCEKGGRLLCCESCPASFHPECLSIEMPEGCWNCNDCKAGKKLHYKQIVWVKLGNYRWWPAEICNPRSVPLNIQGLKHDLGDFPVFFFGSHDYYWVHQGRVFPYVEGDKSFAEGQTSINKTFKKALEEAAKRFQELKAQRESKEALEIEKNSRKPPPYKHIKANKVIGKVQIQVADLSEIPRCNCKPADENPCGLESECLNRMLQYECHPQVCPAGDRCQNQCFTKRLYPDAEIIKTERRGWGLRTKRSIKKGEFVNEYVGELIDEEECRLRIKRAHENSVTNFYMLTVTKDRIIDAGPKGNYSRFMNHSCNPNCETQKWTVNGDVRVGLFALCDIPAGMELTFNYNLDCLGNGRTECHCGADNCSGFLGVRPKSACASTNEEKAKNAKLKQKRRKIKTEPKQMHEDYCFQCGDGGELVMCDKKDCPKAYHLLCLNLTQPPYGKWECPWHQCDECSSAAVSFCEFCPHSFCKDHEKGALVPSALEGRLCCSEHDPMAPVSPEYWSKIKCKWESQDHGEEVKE
On to `COc1cc2nc(N3CCN(C)CC3)nc(NC3CCN(Cc4ccccc4)CC3)c2cc1OC`, for which the pIC50 is 4.02.

The target in another assay is Histone-lysine N-methyltransferase, H3 lysine-36 specific (Homo sapiens, UniProt Q96L73). As to the kind of experiment: Inhibition of human NSD1-SET using histone H3.1 as substrate incubated for 1 hr by Western blot analysis.
Chain of Histone-lysine N-methyltransferase, H3 lysine-36 specific (Q96L73 whole entry): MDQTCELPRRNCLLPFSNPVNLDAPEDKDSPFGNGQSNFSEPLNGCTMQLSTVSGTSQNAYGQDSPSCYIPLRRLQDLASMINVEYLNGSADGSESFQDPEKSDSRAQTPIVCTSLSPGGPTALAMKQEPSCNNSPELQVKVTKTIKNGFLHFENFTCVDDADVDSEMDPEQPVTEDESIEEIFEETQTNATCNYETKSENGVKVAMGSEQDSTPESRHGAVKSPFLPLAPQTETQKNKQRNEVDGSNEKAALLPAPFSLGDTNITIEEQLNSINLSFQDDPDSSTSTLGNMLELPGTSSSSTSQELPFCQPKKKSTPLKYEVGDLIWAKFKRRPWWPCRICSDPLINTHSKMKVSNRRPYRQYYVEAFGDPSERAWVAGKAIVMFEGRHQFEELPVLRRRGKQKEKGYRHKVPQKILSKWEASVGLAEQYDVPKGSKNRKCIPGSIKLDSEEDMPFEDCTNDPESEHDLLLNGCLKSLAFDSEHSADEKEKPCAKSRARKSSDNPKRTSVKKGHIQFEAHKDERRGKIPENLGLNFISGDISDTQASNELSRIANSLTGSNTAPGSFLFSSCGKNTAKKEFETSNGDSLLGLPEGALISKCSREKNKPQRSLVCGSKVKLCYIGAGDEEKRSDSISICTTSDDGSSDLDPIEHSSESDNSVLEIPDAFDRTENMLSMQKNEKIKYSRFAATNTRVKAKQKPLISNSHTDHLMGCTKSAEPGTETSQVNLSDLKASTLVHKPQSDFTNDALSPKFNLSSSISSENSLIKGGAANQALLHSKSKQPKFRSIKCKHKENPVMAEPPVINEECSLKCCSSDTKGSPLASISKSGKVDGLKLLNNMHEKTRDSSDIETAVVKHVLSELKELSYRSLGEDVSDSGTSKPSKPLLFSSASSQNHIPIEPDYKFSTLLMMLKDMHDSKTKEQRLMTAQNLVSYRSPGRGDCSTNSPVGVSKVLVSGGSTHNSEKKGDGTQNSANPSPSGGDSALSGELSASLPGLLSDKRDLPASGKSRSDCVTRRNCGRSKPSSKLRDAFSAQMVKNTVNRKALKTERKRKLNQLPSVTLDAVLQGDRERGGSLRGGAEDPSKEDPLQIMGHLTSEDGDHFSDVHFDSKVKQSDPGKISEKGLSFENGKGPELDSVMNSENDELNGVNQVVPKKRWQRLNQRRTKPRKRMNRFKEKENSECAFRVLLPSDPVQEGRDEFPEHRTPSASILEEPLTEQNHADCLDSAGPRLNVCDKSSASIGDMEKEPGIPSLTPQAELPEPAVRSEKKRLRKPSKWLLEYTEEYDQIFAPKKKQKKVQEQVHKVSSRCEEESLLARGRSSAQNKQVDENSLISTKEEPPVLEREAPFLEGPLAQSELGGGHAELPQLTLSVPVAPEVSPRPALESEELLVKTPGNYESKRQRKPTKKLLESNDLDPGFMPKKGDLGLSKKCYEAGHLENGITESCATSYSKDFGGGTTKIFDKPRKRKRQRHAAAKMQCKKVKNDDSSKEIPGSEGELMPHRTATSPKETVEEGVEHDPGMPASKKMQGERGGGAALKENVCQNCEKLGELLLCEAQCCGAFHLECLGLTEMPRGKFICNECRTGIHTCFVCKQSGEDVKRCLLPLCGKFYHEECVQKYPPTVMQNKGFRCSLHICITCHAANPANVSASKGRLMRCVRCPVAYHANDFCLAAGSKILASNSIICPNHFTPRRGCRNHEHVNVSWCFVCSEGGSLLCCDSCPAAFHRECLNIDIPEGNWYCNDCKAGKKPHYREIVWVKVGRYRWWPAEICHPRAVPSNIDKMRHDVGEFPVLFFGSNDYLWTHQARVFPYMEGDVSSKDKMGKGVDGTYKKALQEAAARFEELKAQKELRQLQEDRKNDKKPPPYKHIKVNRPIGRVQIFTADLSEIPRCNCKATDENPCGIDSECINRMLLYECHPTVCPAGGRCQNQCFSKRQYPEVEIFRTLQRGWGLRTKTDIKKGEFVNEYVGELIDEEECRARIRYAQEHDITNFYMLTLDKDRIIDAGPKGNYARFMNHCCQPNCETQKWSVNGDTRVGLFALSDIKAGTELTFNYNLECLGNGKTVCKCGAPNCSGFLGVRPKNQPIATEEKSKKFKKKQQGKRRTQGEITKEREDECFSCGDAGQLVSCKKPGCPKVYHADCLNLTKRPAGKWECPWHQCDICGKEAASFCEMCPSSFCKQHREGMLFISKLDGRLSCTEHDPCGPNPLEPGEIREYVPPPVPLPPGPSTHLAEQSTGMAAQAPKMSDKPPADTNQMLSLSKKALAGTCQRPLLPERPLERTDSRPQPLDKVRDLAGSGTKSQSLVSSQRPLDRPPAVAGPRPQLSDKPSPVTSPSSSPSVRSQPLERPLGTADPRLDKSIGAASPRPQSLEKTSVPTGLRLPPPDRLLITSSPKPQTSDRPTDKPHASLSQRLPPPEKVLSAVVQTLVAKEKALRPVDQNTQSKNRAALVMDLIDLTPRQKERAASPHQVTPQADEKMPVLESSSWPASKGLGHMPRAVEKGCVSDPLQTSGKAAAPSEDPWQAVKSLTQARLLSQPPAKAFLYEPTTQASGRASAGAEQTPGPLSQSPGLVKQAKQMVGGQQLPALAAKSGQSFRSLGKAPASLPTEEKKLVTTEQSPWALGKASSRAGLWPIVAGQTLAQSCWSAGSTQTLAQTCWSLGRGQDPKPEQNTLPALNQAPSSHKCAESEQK
Consider `COc1cc2nc(N3CCN(C)CC3)nc(NC3CCN(Cc4ccccc4)CC3)c2cc1OC`, for which the pIC50 was 3.95.

For a further assay, the target named is T1, Histone-lysine N-methyltransferase NSD2. As to the kind of experiment: Inhibition of NSD2 (unknown origin).
As to `O=C1O[C@@H](C(=O)N2CCN(Cc3nc4sc5c(c4c(=O)[nH]3)CCCC5)CC2)Cc2ccccc21`, the negative-log IC50 (pIC50) was 4.95. Turning to `NNc1nc2ccccc2nc1S`, the pIC50 was 5.52.

`Nc1ncnc2c1ncn2[C@@H]1O[C@H](CC(N)CC[C@H](N)C(=O)O)[C@@H](O)[C@H]1O` (some centres undefined): the pIC50 was 4.59.
